Measured values as given in patent publication US10053461B2 (Hoffmann-La Roche Inc., priority 2015, dated 2018).
Like-named read-outs stand apart in the source and are kept apart here.

Key:
HBsAg [1] = settings: HBsAg secretion reduced by 50% vs no drug control, HepG2.2.15 cells
Method: (§1) HepG2.2.15 cells (Acs et al. Proc Natl Acad Sci USA, 84, (1987), 4641-4), a constitutively HBV-expressing cell line were cultured in DMEM+Glutamax-I medium (Invitrogen, Carlsbad, Calif., USA), supplemented with 10% fetal bovine serum (Invitrogen) and G418 (Invitrogen) at a final concentration of 200 mg/L and maintained in 5% CO2 at 37° C.
(§2) HepG2.2.15 cells were seeded in duplicate into white, 96-well plates at 1.5×10^4 cells/well. The cells were treated with a three-fold serial dilution series of the compounds in DMSO. The final DMSO concentration in all wells was 1% and DMSO was used as no drug control.
(§3) The HBsAg chemiluminescence immunoassay (CLIA) kit (Autobio Diagnostics Co., Zhengzhou, China, Catalog number: CL0310-2) was used to measure the levels of secreted HBV antigens semi-quantitatively. For the detection 50 μL/well culture supernatant was used and HBsAg was quantified using HBsAg chemiluminescence immunoassay (CLIA) kit (Autobio Diagnostics Co., Zhengzhou, China, Catalog number: CL0310-2), 50 μL of the supernatant was transferred to the CLIA assay plate and 50 μL of enzyme conjugate reagent was added into each well. The plates were sealed and gently agitated for 1 hour at room temperature. The supernatant-enzyme-mixture was discarded and wells were washed 6 times with 300 μL of PBS. The residual liquid was removed by plating the CLIA plate right side down on absorbent tissue paper. 25 μL of substrates A and B were added to each well. Luminance was measured using a luminometer (Mithras LB 940 Multimode Microplate Reader) after 10 minutes incubation. Dose-response curves were generated and the IC50 value was extrapolated by using the E-WorkBook Suite (ID Business Solutions Ltd., Guildford, UK). The IC50 was defined as the compound concentration (or conditioned media log dilution) at which HBsAg secretion was reduced by 50% compared to the no drug control.
(§4) The compounds of the present invention were tested for their activity to inhibit HBsAg as described herein.

HBsAg [2] = experiment: microbe, parasite or virus in culture; settings: Hepatitis B virus, HepG2.2.15
Method: as §1, §2, §3, §4

HBV DNA = HBV DNA assay (real-time qPCR of extracellular HBV DNA, HepG2.2.15 cells); assay type: cell-based; settings: Hepatitis B virus, 144 h; Anti HBV DNA production activity in HepG2.2.15 cells, six days
Method: The assay employs real-time qPCR (TaqMan) to directly measure extracellular HBV DNA copy number. HepG2.2.15 cells were plated in 96-well microtiter plates. Only the interior wells were utilized to reduce “edge effects” observed during cell culture, the exterior wells were filled with complete medium to help minimize sample evaporation. On the following day, the HepG2.2.15 cells were washed and the medium was replaced with complete medium containing various concentrations of a test compound in triplicate. 3TC was used as the positive control, while media alone was added to cells as a negative control (virus control, VC). Three days later, the culture medium was replaced with fresh medium containing the appropriately diluted drug. Six days following the initial administration of the test compound, the cell culture supernatant was collected, treated with pronase and then used in a real-time qPCR/TaqMan assay to determine HBV DNA copy numbers. Antiviral activity was calculated from the reduction in HBV DNA levels (IC50).

SMILES: COc1cc2c(cc1OCc1ccccc1)[C@H]1CCC(C)(C)[C@H]1n1cc(C(=O)O)c(=O)cc1-2 [Example 4, (3aS,12bR)-11-(benzyloxy)-10-methoxy-3,3-dimethyl-7-oxo-1,2,3,3a,7,12b-hexahydrocyclopenta[c]pyrido[2,1-a]isoquinoline-6-carboxylic acid]
- IC50 (HBsAg [1]): 3 nM

SMILES: COc1cc2c(cc1OCc1ccccc1)[C@@H]1CCC(C)(C)[C@@H]1n1cc(C(=O)O)c(=O)cc1-2 [Example 5, (3aR,12bS)-11-(benzyloxy)-10-methoxy-3,3-dimethyl-7-oxo-1,2,3,3a,7,12b-hexahydrocyclopenta[c]pyrido[2,1-a]isoquinoline-6-carboxylic acid]
- IC50 (HBsAg [2]): 308 nM

SMILES: COCCOc1cc2c(cc1OC)-c1cc(=O)c(C(=O)O)cn1[C@H]1[C@@H]2CCC1(C)C (relative stereo) [Example 11, Cis-10-methoxy-11-(2-methoxyethoxy)-3,3-dimethyl-7-oxo-1,2,3,3a,7,12b-hexahydrocyclopenta[c]pyrido[2,1-a]isoquinoline-6-carboxylic acid]
- IC50 (HBsAg [2]): 4 nM

SMILES: COc1cc2c(cc1OCc1ccccc1)[C@H]1CCC(C)(C)[C@H]1n1cc(C(=O)O)c(=O)cc1-2 (relative stereo) [Example 3, Cis-11-(benzyloxy)-10-methoxy-3,3-dimethyl-7-oxo-1,2,3,3a,7,12b-hexahydrocyclopenta[c]pyrido[2,1-a]isoquinoline-6-carboxylic acid]
- IC50 (HBV DNA): 40 nM
- IC50 (HBsAg [2]): 3 nM

SMILES: COCCCOc1cc2c(cc1OC)-c1cc(=O)c(C(=O)O)cn1[C@H]1[C@@H]2CCC1(C)C (racemic) [Example 2, cis-10-methoxy-11-(3-methoxypropoxy)-3,3-dimethyl-7-oxo-1,2,3,3a,7,12b-hexahydrocyclopenta[c]pyrido[2,1-a]isoquinoline-6-carboxylic acid]
- IC50 (HBsAg [2]): 1 nM

SMILES: COCCCOc1cc2c(cc1OC)-c1cc(=O)c(C(=O)O)cn1[C@@H]1CCOC[C@H]21 (relative stereo) [Example 34, cis-11-methoxy-12-(3-methoxypropoxy)-8-oxo-1,3,4,4a,8,13b-hexahydropyrano[4,3-c]pyrido[2,1-a]isoquinoline-7-carboxylic acid]
- IC50 (HBsAg [2]): 186 nM

SMILES: COCCCOc1cc2c(cc1OC)-c1cc(=O)c(C(=O)O)cn1[C@@H]1CCS(=O)(=O)C[C@@H]21 (relative stereo) [Example 37, Trans-11-methoxy-12-(3-methoxypropoxy)-8-oxo-1,3,4,4a,8,13b-hexahydropyrido[2,1-a]thiopyrano[4,3-c]isoquinoline-7-carboxylic acid 2,2-dioxide]
- IC50 (HBsAg [2]): 2200 nM

SMILES: COc1cc2c(cc1OCCCCCCO)[C@H]1CCC(C)(C)[C@H]1n1cc(C(=O)O)c(=O)cc1-2 (relative stereo) [Example 22, Cis-11-((6-hydroxyhexyl)oxy)-10-methoxy-3,3-dimethyl-7-oxo-1,2,3,3a,7,12b-hexahydrocyclopenta[c]pyrido[2,1-a]isoquinoline-6-carboxylic acid]
- IC50 (HBsAg [2]): 1 nM

SMILES: COc1cc2c(cc1OCC(C)(C)CO)[C@H]1CCC(C)(C)[C@H]1n1cc(C(=O)O)c(=O)cc1-2 (relative stereo) [Example 14, Cis-11-(3-hydroxy-2,2-dimethylpropoxy)-10-methoxy-3,3-dimethyl-7-oxo-1,2,3,3a,7,12b-hexahydrocyclopenta[c]pyrido[2,1-a]isoquinoline-6-carboxylic acid]
- IC50 (HBsAg [2]): 3 nM

SMILES: COCCCOc1cc2c(cc1OC)-c1cc(=O)c(C(=O)O)cn1[C@@H]1CCSC[C@@H]21 (racemic) [Example 35, Trans-11-methoxy-12-(3-methoxypropoxy)-8-oxo-1,3,4,4a,8,13b-hexahydropyrido[2,1-a]thiopyrano[4,3-c]isoquinoline-7-carboxylic acid]
- IC50 (HBsAg [2]): 110 nM

SMILES: CCc1cc2c(cc1OC)-c1cc(=O)c(C(=O)O)cn1[C@H]1[C@@H]2CCC1(C)C [Example 39]
- IC50 (HBsAg [2]): 20 nM

SMILES: COCCCOc1cc2c(cc1Cl)-c1cc(=O)c(C(=O)O)cn1[C@@H]1CCCCC[C@H]21 (relative stereo) [Example 28, cis-13-chloro-12-(3-methoxypropoxy)-2-oxo-2,5a,6,7,8,9,10,10a-octahydrocyclohepta[c]pyrido[2,1-a]isoquinoline-3-carboxylic acid]
- IC50 (HBV DNA): < 32 nM
- IC50 (HBsAg [2]): 3 nM

SMILES: COc1cc2c(cc1OCC(F)(F)F)[C@H]1CCC(C)(C)[C@H]1n1cc(C(=O)O)c(=O)cc1-2 (relative stereo) [Example 8, Cis-10-methoxy-3,3-dimethyl-7-oxo-11-(2,2,2-trifluoroethoxy)-1,2,3,3a,7,12b-hexahydrocyclopenta[c]pyrido[2,1-a]isoquinoline-6-carboxylic acid]
- IC50 (HBsAg [2]): 3 nM

SMILES: COc1cc2c(cc1OCCCO)[C@H]1CCC(C)(C)[C@H]1n1cc(C(=O)O)c(=O)cc1-2 (relative stereo) [Example 13, Cis-11-(3-hydroxypropoxy)-10-methoxy-3,3-dimethyl-7-oxo-1,2,3,3a,7,12b-hexahydrocyclopenta[c]pyrido[2,1-a]isoquinoline-6-carboxylic acid]
- IC50 (HBsAg [2]): 5 nM

SMILES: COCCCOc1cc2c(cc1OC)-c1cc(=O)c(C(=O)O)cn1[C@@H]1CCOC[C@@H]21 (relative stereo) [Example 33, Trans-11-methoxy-12-(3-methoxypropoxy)-8-oxo-1,3,4,4a,8,13b-hexahydropyrano[4,3-c]pyrido[2,1-a]isoquinoline-7-carboxylic acid]
- IC50 (HBsAg [2]): 265 nM

SMILES: COc1cc2c(cc1OCCCCCCNC(C)=O)[C@H]1CCC(C)(C)[C@H]1n1cc(C(=O)O)c(=O)cc1-2 (relative stereo) [Example 25, Cis-11-((6-acetamidohexyl)oxy)-10-methoxy-3,3-dimethyl-7-oxo-1,2,3,3a,7,12b-hexahydrocyclopenta[c]pyrido[2,1-a]isoquinoline-6-carboxylic acid]
- IC50 (HBsAg [2]): 6 nM

SMILES: COCCCOc1cc2c(cc1Cl)-c1cc(=O)c(C(=O)O)cn1[C@@H]1CCCCC[C@@H]21 (relative stereo) [Example 27, Trans-13-chloro-12-(3-methoxypropoxy)-2-oxo-2,5a,6,7,8,9,10,10a-octahydrocyclohepta[c]pyrido[2,1-a]isoquinoline-3-carboxylic acid]
- IC50 (HBsAg [2]): 20 nM

SMILES: COc1cc2c(cc1OCCCN1CCCC1=O)[C@H]1CCC(C)(C)[C@H]1n1cc(C(=O)O)c(=O)cc1-2 (relative stereo) [Example 17, Cis-10-methoxy-3,3-dimethyl-7-oxo-11-(3-(2-oxopyrrolidin-1-yl)propoxy)-1,2,3,3a,7,12b-hexahydrocyclopenta[c]pyrido[2,1-a]isoquinoline-6-carboxylic acid]
- IC50 (HBsAg [2]): 25 nM

SMILES: COc1cc2c(cc1OCC1CC1)[C@H]1CCC(C)(C)[C@H]1n1cc(C(=O)O)c(=O)cc1-2 (relative stereo) [Example 10, Cis-11-(cyclopropylmethoxy)-10-methoxy-3,3-dimethyl-7-oxo-1,2,3,3a,7,12b-hexahydrocyclopenta[c]pyrido[2,1-a]isoquinoline-6-carboxylic acid]
- IC50 (HBsAg [2]): 1 nM

SMILES: COCCCOc1cc2c(cc1OC)-c1cc(=O)c(C(=O)O)cn1[C@H]1[C@H]2CCC1(C)C (relative stereo) [Example 1, Trans-10-methoxy-11-(3-methoxypropoxy)-3,3-dimethyl-7-oxo-1,2,3,3a,7,12b-hexahydrocyclopenta[c]pyrido[2,1-a]isoquinoline-6-carboxylic acid]
- IC50 (HBsAg [2]): 10 nM

SMILES: COc1cc2c(cc1OC)[C@H]1CCC(C)(C)[C@H]1n1cc(C(=O)O)c(=O)cc1-2 (relative stereo) [Example 7, Cis-10,11-dimethoxy-3,3-dimethyl-7-oxo-1,2,3,3a,7,12b-hexahydrocyclopenta[c]pyrido[2,1-a]isoquinoline-6-carboxylic acid]
- IC50 (HBsAg [2]): 5 nM

SMILES: COc1cc2c(cc1C)[C@H]1CCC(C)(C)[C@H]1n1cc(C(=O)O)c(=O)cc1-2 (relative stereo) [Example 38, Cis-10-methoxy-3,3,11-trimethyl-7-oxo-1,2,3,3a,7,12b-hexahydrocyclopenta[c]pyrido[2,1-a]isoquinoline-6-carboxylic acid]
- IC50 (HBsAg [2]): 36 nM
